According to patent US20050282743A1, “Molecular interactions in cells” (Arbor Vita Corporation, priority 2001, published 2005):
Peptide text beside a SMILES is read from it. * marks the point of attachment. Biotin = O=C1N[C@H]2[C@H](CS[C@H]2CCCCC(=O)*)N1

Key:
Assay in all cases: Apparent affinity (Kd) by titration of PL peptide in the G assay
Format in all cases: binding
[1] = biological target: T1, PDZ-domain polypeptide (GST/PDZ fusion protein) (Homo sapiens, UniProt Q96HC4); details: PDZ LIM Protein, PDZ Domain 1; titration of the PL peptide; read-out: Peptide Optimal Conc (Kd, dissociation constant)
T1 construct: made in house; host or cells: E. coli (DH5alpha, BL21 or JM109)
How it was run: (§1)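 A fixed concentration of GST/PDZ fusion protein, 5 ug/ml by default, was mixed in solution with increasing labeled PL peptide (e.g. 0.1 uM-1 mM). Reaction times ranged from 10 minutes to 2 days at 4-37° C. Complexes were separated from free peptide and detected via the label as in the G assay, apparent affinity coming from the saturating concentration.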

[2] = biological target: T2, PDZ-domain polypeptide (GST/PDZ fusion protein) (Homo sapiens, UniProt O14907); details: PDZ TIP1, PDZ Domain 1; titration of the PL peptide; read-out: Peptide Optimal Conc (Kd, dissociation constant)
T2 construct: made in house; host or cells: E. coli (DH5alpha, BL21 or JM109)
T2 sequence (O14907 whole entry, the tested form may be a part): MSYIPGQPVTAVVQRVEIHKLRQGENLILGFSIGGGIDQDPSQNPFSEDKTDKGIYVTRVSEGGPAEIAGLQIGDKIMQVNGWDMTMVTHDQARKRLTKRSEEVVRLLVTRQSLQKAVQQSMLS
How it was run: as §1

[3] = biological target: T3, PDZ-domain polypeptide (GST/PDZ fusion protein) (Homo sapiens, UniProt O15018); details: Peptide Optimal Conc (Kd by titration of the PL peptide), PDZ AIPC, PDZ Domain 1
T3 construct: made in house; host or cells: E. coli (DH5alpha, BL21 or JM109)
How it was run: as §1

[4] = biological target: T4, PDZ-domain polypeptide (GST/PDZ fusion protein) (Homo sapiens, UniProt Q9Y3R0); details: Peptide Optimal Conc (Kd by titration of the PL peptide), PDZ GRIP1, PDZ Domain 6
T4 construct: made in house; host or cells: E. coli (DH5alpha, BL21 or JM109)
How it was run: as §1

[5] = biological target: T5, PDZ-domain polypeptide (GST/PDZ fusion protein) (Homo sapiens, UniProt Q8NI35); details: Peptide Optimal Conc (Kd by titration of the PL peptide), PDZ INADL, PDZ Domain 3
T5 construct: made in house; host or cells: E. coli (DH5alpha, BL21 or JM109)
How it was run: as §1

[6] = biological target: T6, PDZ-domain polypeptide (GST/PDZ fusion protein) (Homo sapiens, UniProt Q07157); details: Peptide Optimal Conc (Kd by titration of the PL peptide), PDZ ZO-1, PDZ Domain 2
T6 construct: made in house; host or cells: E. coli (DH5alpha, BL21 or JM109)
T6 sequence (Q07157 whole entry, the tested form may be a part): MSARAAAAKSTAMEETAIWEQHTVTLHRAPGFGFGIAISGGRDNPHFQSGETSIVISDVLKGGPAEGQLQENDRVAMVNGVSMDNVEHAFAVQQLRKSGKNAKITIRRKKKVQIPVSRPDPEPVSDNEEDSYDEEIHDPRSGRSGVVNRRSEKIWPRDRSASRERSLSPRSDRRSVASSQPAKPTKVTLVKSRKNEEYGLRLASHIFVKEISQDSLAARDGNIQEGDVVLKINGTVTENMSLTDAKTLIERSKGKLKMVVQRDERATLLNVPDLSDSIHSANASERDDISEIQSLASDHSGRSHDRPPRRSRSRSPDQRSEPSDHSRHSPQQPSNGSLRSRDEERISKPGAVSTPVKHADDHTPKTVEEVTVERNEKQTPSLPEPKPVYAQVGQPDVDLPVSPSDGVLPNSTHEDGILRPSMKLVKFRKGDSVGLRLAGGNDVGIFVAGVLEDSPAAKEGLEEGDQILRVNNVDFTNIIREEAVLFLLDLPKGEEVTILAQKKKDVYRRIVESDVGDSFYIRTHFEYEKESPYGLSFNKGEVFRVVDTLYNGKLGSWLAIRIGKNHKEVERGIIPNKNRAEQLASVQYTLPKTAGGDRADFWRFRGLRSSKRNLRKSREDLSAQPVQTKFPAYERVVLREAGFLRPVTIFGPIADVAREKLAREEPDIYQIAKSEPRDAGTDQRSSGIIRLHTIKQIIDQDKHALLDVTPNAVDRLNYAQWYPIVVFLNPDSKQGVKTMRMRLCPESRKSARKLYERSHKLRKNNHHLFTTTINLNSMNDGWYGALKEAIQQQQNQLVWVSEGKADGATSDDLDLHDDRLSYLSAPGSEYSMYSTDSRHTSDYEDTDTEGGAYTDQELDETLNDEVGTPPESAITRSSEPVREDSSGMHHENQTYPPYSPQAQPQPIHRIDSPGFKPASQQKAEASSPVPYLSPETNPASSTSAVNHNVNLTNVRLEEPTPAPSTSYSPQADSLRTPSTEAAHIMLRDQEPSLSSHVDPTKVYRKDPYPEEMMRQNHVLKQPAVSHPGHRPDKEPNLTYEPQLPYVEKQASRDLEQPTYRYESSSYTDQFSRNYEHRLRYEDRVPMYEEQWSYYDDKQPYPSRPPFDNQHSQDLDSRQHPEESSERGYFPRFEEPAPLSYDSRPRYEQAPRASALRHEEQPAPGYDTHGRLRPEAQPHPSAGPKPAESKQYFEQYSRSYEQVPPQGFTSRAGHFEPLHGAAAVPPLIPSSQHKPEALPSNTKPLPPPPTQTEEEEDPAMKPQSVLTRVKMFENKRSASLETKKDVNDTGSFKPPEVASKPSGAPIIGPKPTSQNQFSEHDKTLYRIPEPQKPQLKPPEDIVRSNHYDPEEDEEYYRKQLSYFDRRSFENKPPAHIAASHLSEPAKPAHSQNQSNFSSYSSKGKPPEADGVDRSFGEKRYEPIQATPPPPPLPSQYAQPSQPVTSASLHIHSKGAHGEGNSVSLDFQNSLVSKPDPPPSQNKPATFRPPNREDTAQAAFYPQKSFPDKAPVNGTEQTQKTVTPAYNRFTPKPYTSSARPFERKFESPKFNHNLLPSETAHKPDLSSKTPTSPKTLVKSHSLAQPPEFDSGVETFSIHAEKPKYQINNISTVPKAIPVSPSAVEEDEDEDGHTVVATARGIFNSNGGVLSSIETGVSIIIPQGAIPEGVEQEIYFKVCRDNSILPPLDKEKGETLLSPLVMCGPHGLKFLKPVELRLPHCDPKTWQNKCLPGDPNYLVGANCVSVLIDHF
How it was run: as §1

[7] = biological target: T7, PDZ-domain polypeptide (GST/PDZ fusion protein) (Homo sapiens, UniProt Q9C0E4); details: Peptide Optimal Conc (Kd by titration of the PL peptide)
T7 construct: made in house; host or cells: E. coli (DH5alpha, BL21 or JM109)
T7 sequence (Q9C0E4 whole entry, the tested form may be a part): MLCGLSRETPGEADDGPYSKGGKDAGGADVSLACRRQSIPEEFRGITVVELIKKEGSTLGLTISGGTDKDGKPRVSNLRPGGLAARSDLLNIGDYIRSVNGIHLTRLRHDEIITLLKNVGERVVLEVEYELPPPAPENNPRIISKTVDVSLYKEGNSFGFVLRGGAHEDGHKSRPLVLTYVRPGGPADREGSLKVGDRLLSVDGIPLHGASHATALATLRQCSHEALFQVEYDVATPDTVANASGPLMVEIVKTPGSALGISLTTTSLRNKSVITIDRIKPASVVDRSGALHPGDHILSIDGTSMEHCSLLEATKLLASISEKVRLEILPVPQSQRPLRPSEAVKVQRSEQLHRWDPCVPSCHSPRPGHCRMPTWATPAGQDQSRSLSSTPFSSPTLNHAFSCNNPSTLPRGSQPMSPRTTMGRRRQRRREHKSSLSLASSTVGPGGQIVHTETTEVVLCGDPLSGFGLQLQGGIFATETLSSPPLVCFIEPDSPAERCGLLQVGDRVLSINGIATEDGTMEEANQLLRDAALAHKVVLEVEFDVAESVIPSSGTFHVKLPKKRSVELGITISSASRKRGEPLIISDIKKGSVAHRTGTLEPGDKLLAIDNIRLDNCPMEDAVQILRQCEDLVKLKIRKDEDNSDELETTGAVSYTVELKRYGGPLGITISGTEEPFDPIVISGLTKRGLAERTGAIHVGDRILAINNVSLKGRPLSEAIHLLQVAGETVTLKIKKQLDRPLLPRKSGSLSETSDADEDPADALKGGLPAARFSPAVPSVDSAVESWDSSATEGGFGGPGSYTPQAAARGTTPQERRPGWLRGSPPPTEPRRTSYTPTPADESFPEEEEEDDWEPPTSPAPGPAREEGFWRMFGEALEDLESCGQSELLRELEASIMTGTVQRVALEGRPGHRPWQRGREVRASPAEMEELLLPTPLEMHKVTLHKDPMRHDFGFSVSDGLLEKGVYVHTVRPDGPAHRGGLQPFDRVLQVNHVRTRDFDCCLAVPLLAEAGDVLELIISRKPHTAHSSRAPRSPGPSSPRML
How it was run: as §1

[8] = biological target: T8, PDZ-domain polypeptide (GST/PDZ fusion protein) (Homo sapiens, UniProt O00560); details: PDZ hSyntenin, PDZ Domain 1; titration of the PL peptide; read-out: Peptide Optimal Conc (Kd, dissociation constant)
T8 construct: made in house; host or cells: E. coli (DH5alpha, BL21 or JM109)
How it was run: as §1

[9] = biological target: T9, PDZ-domain polypeptide (GST/PDZ fusion protein) (Homo sapiens, UniProt Q9P202); details: PDZ KIAA1526, PDZ Domain 1; read-out: Peptide Optimal Conc (Kd by titration of the PL peptide)
T9 construct: made in house; host or cells: E. coli (DH5alpha, BL21 or JM109)
How it was run: as §1

[10] = biological target: T10, PDZ-domain polypeptide (GST/PDZ fusion protein) (Homo sapiens, UniProt Q14160); details: PDZ KIAA0147, PDZ Domain 3; read-out: Peptide Optimal Conc (Kd by titration of the PL peptide)
T10 construct: made in house; host or cells: E. coli (DH5alpha, BL21 or JM109)
How it was run: as §1

[11] = biological target: T11, PDZ-domain polypeptide (GST/PDZ fusion protein) (Homo sapiens, UniProt Q96RT1); details: PDZ Erbin, PDZ Domain 1; read-out: Peptide Optimal Conc (Kd by titration of the PL peptide)
T11 construct: made in house; host or cells: E. coli (DH5alpha, BL21 or JM109)
How it was run: as §1

[12] = biological target: T12, PDZ-domain polypeptide (GST/PDZ fusion protein) (Homo sapiens, UniProt Q9HD26); details: Peptide Optimal Conc (Kd by titration of the PL peptide), PDZ PIST, PDZ Domain 1
T12 construct: made in house; host or cells: E. coli (DH5alpha, BL21 or JM109)
How it was run: as §1

[13] = biological target: T13, PDZ-domain polypeptide (GST/PDZ fusion protein) (Homo sapiens, UniProt Q9UDY2); details: Peptide Optimal Conc (Kd by titration of the PL peptide), PDZ ZO-2, PDZ Domain 1
T13 construct: made in house; host or cells: E. coli (DH5alpha, BL21 or JM109)
T13 sequence (Q9UDY2 whole entry, the tested form may be a part): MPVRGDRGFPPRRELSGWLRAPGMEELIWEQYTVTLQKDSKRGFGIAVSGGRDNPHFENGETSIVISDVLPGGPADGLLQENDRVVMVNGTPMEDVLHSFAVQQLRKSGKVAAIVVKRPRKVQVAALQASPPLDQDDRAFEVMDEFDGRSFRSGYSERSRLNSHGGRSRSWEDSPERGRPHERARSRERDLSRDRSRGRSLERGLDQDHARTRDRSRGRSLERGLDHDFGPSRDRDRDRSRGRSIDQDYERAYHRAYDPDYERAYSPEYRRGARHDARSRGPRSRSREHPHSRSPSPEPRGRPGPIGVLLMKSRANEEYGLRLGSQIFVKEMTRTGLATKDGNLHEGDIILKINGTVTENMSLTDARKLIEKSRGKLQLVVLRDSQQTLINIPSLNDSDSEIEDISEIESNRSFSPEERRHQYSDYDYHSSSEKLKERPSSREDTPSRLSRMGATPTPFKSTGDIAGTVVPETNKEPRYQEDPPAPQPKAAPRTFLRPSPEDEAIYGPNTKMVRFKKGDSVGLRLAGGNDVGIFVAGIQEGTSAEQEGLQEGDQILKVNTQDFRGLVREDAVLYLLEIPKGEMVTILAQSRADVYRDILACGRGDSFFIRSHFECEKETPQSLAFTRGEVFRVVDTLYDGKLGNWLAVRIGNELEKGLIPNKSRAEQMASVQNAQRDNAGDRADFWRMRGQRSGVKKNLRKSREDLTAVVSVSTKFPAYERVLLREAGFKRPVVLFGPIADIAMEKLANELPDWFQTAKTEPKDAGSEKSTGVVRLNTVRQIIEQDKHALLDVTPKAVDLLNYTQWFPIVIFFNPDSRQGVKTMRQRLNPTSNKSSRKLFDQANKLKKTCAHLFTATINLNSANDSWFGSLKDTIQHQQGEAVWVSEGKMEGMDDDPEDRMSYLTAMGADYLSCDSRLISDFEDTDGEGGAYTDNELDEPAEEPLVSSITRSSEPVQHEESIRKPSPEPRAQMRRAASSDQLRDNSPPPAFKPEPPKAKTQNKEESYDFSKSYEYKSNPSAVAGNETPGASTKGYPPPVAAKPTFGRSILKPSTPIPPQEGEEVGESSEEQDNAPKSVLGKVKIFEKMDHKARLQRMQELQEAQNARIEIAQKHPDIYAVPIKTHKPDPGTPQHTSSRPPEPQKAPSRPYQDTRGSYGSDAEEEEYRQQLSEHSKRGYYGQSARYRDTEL
How it was run: as §1

[14] = biological target: T14, PDZ-domain polypeptide (GST/PDZ fusion protein) (Homo sapiens, UniProt Q13796); details: PDZ hAPXL, PDZ Domain 1; read-out: Peptide Optimal Conc (non-zero value: Kd by titration of the PL peptide)
T14 construct: made in house; host or cells: E. coli (DH5alpha, BL21 or JM109)
How it was run: as §1

[15] = biological target: T15, PDZ-domain polypeptide (GST/PDZ fusion protein) (Homo sapiens, UniProt P57105); details: PDZ Outer Membrane, PDZ Domain 1; Protein Optimal Conc 5
T15 construct: made in house; host or cells: E. coli (DH5alpha, BL21 or JM109)
T15 sequence (P57105 whole entry, the tested form may be a part): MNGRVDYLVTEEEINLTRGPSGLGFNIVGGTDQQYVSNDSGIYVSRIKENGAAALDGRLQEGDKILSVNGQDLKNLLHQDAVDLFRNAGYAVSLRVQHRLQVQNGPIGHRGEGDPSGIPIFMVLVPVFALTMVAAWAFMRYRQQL
How it was run: as §1

[16] = biological target: T16, PDZ-domain polypeptide (GST/PDZ fusion protein) (Homo sapiens, UniProt Q969H4); details: PDZ Connector Enhancer, PDZ Domain 1; Protein Optimal Conc 5
T16 construct: made in house; host or cells: E. coli (DH5alpha, BL21 or JM109)
T16 sequence (Q969H4 whole entry, the tested form may be a part): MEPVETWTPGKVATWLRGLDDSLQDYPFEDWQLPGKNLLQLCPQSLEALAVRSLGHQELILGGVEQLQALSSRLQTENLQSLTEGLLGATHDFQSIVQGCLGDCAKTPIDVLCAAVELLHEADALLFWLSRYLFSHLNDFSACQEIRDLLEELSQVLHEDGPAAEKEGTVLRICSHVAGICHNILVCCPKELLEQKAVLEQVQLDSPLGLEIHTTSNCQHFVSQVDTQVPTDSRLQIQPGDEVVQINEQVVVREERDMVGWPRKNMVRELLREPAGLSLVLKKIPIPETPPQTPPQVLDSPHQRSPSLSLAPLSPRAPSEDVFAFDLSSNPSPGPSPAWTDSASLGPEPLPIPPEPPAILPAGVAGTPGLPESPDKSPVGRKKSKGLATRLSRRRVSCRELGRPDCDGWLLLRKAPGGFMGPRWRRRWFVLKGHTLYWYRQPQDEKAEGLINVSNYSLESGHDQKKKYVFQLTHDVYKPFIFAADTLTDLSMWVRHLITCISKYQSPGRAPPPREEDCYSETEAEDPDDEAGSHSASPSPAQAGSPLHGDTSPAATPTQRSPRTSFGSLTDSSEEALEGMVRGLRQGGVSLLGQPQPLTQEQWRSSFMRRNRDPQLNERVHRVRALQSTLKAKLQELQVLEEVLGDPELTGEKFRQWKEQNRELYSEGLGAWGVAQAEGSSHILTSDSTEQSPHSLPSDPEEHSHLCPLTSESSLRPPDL
How it was run: as §1

CC(C)C[C@H](NC(=O)[C@H](CC(=O)O)NC(=O)[C@H](CO)NC(=O)[C@H](CCC(=O)O)NC(=O)CNC(=O)[C@H](Cc1ccc(O)cc1)NC(=O)[C@H](CC(C)C)NC(=O)[C@H](C)NC(=O)[C@H](CO)NC(=O)[C@H](CO)NC(=O)[C@H](Cc1ccccc1)NC(=O)[C@H](C)NC(=O)[C@H](C)NC(=O)[C@H](Cc1ccc(O)cc1)NC(=O)[C@H](CC(=O)O)NC(=O)[C@H](CC(C)C)NC(=O)[C@H](C)NC(=O)CNC(=O)[C@@H]1CCCN1C(=O)[C@@H](NC(=O)CCCC[C@@H]1SC[C@@H]2NC(=O)N[C@@H]21)C(C)C)C(=O)O [a-actinin 2] (Biotin-VPGALDYAAFSSALYGESDL-OH; C-terminus assumed)
Kd [1]: 2000 nM
Kd [2]: 1000 nM

CC[C@H](C)[C@H](NC(=O)[C@H](C)NC(=O)[C@H](CC(C)C)NC(=O)[C@H](Cc1c[nH]c2ccccc12)NC(=O)[C@H](Cc1c[nH]cn1)NC(=O)[C@H](CCC(N)=O)NC(=O)[C@H](CC(C)C)NC(=O)[C@H](CCC(N)=O)NC(=O)[C@H](Cc1ccccc1)NC(=O)[C@H](CCC(N)=O)NC(=O)[C@H](CCCNC(=N)N)NC(=O)[C@@H](NC(=O)[C@H](CC(=O)O)NC(=O)[C@H](CCCNC(=N)N)NC(=O)[C@H](CCC(N)=O)NC(=O)[C@H](C)NC(=O)[C@@H](NC(=O)[C@H](CC(C)C)NC(=O)[C@H](Cc1c[nH]cn1)NC(=O)[C@H](Cc1c[nH]cn1)NC(=O)CCCC[C@@H]1SC[C@@H]2NC(=O)N[C@@H]21)C(C)C)[C@@H](C)CC)C(=O)O [noradrenaline transporter] (Biotin-HHLVAQRDIRQFQLQHWLAI-OH; C-terminus assumed)
Kd [3]: 600 nM
Kd [4]: 500 nM
Kd [5]: 600 nM
Kd [6]: 400 nM
Kd ([7]; PDZ KIAA1719, PDZ Domain 5): 1000 nM
Kd ([7]; PDZ KIAA1719, PDZ Domain 6): 800 nM

CC[C@H](C)[C@H](NC(=O)[C@H](Cc1ccc(O)cc1)NC(=O)[C@@H](NC(=O)[C@@H]1CCCN1C(=O)[C@H](CCC(N)=O)NC(=O)[C@H](CCC(=O)O)NC(=O)[C@H](CCC(N)=O)NC(=O)[C@H](C)NC(=O)[C@@H](NC(=O)[C@H](CC(C)C)NC(=O)[C@H](CC(C)C)NC(=O)[C@H](CCCNC(=N)N)NC(=O)[C@H](Cc1ccc(O)cc1)NC(=O)[C@H](CCSC)NC(=O)[C@H](C)NC(=O)[C@H](C)NC(=O)[C@@H]1CCCN1C(=O)[C@H](CCSC)NC(=O)[C@@H](NC(=O)[C@H](CCCCN)NC(=O)CCCC[C@@H]1SC[C@@H]2NC(=O)N[C@@H]21)[C@@H](C)O)[C@@H](C)O)C(C)C)C(=O)O [MINT-1] (Biotin-KTMPAAMYRLLTAQEQPVYI-OH; C-terminus assumed)
Kd [8]: 800 nM

CSCC[C@H](NC(=O)[C@H](C)NC(=O)[C@H](CCCNC(=N)N)NC(=O)CNC(=O)[C@@H](NC(=O)[C@H](Cc1c[nH]c2ccccc12)NC(=O)[C@H](CCCNC(=N)N)NC(=O)CNC(=O)CCCC[C@@H]1SC[C@@H]2NC(=O)N[C@@H]21)[C@@H](C)O)C(=O)N[C@@H](CO)C(=O)N[C@@H](C)C(=O)N[C@@H](Cc1c[nH]c2ccccc12)C(=O)N[C@@H](CCCCN)C(=O)N1CCC[C@H]1C(=O)N[C@H](C(=O)N[C@@H](CCCNC(=N)N)C(=O)N[C@@H](CCCNC(=N)N)C(=O)N[C@@H](CCC(=O)O)C(=O)N[C@H](C(=O)N[C@@H](CCC(=O)O)C(=O)N[C@H](C(=O)O)C(C)C)[C@@H](C)O)[C@@H](C)O [HPV E6 #35 (modified)] (Biotin-GRWTGRAMSAWKPTRRETEV-OH; C-terminus assumed)
Kd [9]: 1000 nM
Kd [10]: 350 nM
Kd [11]: 400 nM

CC[C@H](C)[C@H](NC(=O)[C@H](CC(=O)O)NC(=O)[C@H](CCC(=O)O)NC(=O)[C@H](CCCNC(=N)N)NC(=O)[C@@H](NC(=O)CCCC[C@@H]1SC[C@@H]2NC(=O)N[C@@H]21)[C@@H](C)O)C(=O)N[C@@H](Cc1ccc(O)cc1)C(=O)N[C@H](C(=O)N[C@@H](CC(N)=O)C(=O)N[C@@H](Cc1ccc(O)cc1)C(=O)N1CCC[C@H]1C(=O)N[C@H](C(=O)N[C@@H](Cc1ccccc1)C(=O)N[C@@H](CO)C(=O)N[C@@H](CCCNC(=N)N)C(=O)N[C@@H](CCCNC(=N)N)C(=O)N1CCC[C@H]1C(=O)N[C@@H](CCCCN)C(=O)N[C@H](C(=O)N[C@@H](CCCNC(=N)N)C(=O)N[C@H](C(=O)O)C(C)C)[C@@H](C)O)[C@@H](C)O)C(C)C [DNAM-1] (Biotin-TREDIYVNYPTFSRRPKTRV-OH; C-terminus assumed)
Kd [12]: 2500 nM
Kd [13]: 3000 nM

CC[C@H](C)[C@H](NC(=O)CNC(=O)[C@H](CO)NC(=O)[C@H](Cc1ccccc1)NC(=O)[C@@H](NC(=O)[C@H](CS)NC(=O)CNC(=O)CNC(=O)[C@H](C)NC(=O)[C@@H]1CCCN1C(=O)[C@@H](NC(=O)[C@@H]1CCCN1C(=O)CCCC[C@@H]1SC[C@@H]2NC(=O)N[C@@H]21)[C@@H](C)CC)[C@@H](C)O)C(=O)N[C@@H](Cc1ccccc1)C(=O)N1CCC[C@H]1C(=O)N[C@H](C(=O)N[C@@H](CC(C)C)C(=O)N[C@H](C(=O)N[C@@H](CO)C(=O)N1CCC[C@H]1C(=O)N[C@@H](CC(C)C)C(=O)O)[C@@H](C)O)[C@@H](C)O [KIA 1481] (Biotin-PIPAGGCTFSGIFPTLTSPL-OH; C-terminus assumed)
Kd [14]: 600 nM

CC[C@H](C)[C@H](NC(=O)[C@H](CCCCN)NC(=O)[C@@H](NC(=O)[C@H](CO)NC(=O)[C@@H]1CCCN1C(=O)[C@H](Cc1ccccc1)NC(=O)[C@@H](NC(=O)[C@@H](NC(=O)[C@H](CCCNC(=N)N)NC(=O)[C@H](CCC(=O)O)NC(=O)[C@H](CC(C)C)NC(=O)[C@H](CC(C)C)NC(=O)[C@H](CC(C)C)NC(=O)[C@@H](NC(=O)CNC(=O)[C@@H](NC(=O)CCCC[C@@H]1SC[C@@H]2NC(=O)N[C@@H]21)C(C)C)[C@@H](C)O)C(C)C)[C@@H](C)CC)C(C)C)C(=O)N[C@@H](C)C(=O)N[C@H](C(=O)N[C@@H](CC(C)C)C(=O)N[C@H](C(=O)O)C(C)C)[C@@H](C)O [Adenovirus E4 Type9]
Kd [15]: 100 nM
Kd [16]: 100 nM
